Results: US20240415836A1, “COMPOSITION COMPRISING TWO ENZYME INHIBITORS TARGETING TWO DIFFERENT CONFORMATIONS OF AN ENZYME” (University College Dublin, priority 2018, published 2024)
Like-named read-outs stand apart in the source and are kept apart here.

Assays:
[1] = test system: ERK signaling, MEL-JUSO cells; experiment: ERK signaling in growing MEL-JUSO cells, Western Blot, 1 hr; format: cell-based; details: trametinib at doses that do not fully inhibit ERK activation
Experimental: Cells were transferred on ice, scraped using lysis buffer (10 mM Tris pH 7.5, 150 mM NaCl, and 0.5% (v/v) NP-40) complemented with protease and phosphatase inhibitors, and the cellular debris removed from the lysate by centrifugation at 10,000×g at 4° C. for 10 min. […] Lysates were then resolved by SDS PAGE (12%) and transferred on a polyvinylidene difluoride membrane (Millipore). Protein visualization was performed in combination with horseradish peroxidase-conjugated secondary antibodies (Cell Signalling Technologies) and the enhanced chemiluminescence system (GE Healthcare) using the Advanced Molecular Vision Chemi Image Unit associated with ChemoStar Imager (INTAS Science Imaging Instruments GmbH) for the following antibodies: Polyclonal rabbit anti-human mitogen-activated protein (MAP) kinase [extra-cellular signal-regulated kinase (ERK) 1 and ERK2] antibody (Sigma), monoclonal mouse anti-human MAP kinase activated (diphosphorylated ERK1 and ERK2) antibody (Sigma).

[2] = test system: DND41 (T-ALL leukaemia) cells; experiment: Proliferation of DND41 cells, 4 days; format: cell-based; details: doses exceeding 10 μM of each drug, alone and in combination
Experimental: Inventors' model predictions were corroborated by cell line experiments where proliferation responses of T-ALL cells (DND41) to Type I inhibitor Ruxolitinib, Type II inhibitor CHZ868, and their combination were measured (FIG. 17). […] However, the inventors observed saturation of inhibition of cellular proliferation. […] This incomplete inhibition of proliferation is explained by activation of STAT family of transcription factors by alternative signalling pathways.

MEL-JUSO cells = experiment: Cell proliferation assay (MTS) in MEL-JUSO cells; format: cell-based; details: Homo sapiens, read-out: GI50 (a dose inhibiting cell proliferation by 50%)
Experimental: Cell proliferation was analyzed by CellTiter 96 Aqueous One Solution Cell Proliferation Assay (MTS; Promega) according to manufacturer's instructions. For this, 5,000 cells were plated per well of 96-well tissue culture plates (in 200 μL of medium).

RAF = details: literature values; cited from earlier work
[3] = test system: HER2-positive breast cancer cells; experiment: HER2-positive breast cancer cells stimulated with Heregulin (HRG); format: cell-based
Experimental: Thus, in order to model conditions of resistance to ErbB inhibitors, all proliferation assays were performed in the presence of HRG.

all RAF isoforms = details: literature (King 2006; Wan 2004; Wilhelm 2004); cited from earlier work
[4] = test system: MEK signaling, A375 (WT RAS, BRAF^V600E/V600E) cells; experiment: cells; details: Homo sapiens, A-375, 1 h, read-out: IC50, MEK signaling response
Experimental: (§1) Cell lines were either purchased from ATCC (SKMEL2, A375) or DSMZ (MEL-JSUO). […] All cells were grown in RPMI (Gibco) supplemented with 2 mM L-glutamine and 10% (v/v) fetal bovine serum in a humidified atmosphere of 5% CO2 at 37° C. Cells were seeded in 12-well plates (Greiner CELLSTAR dishes) at the density of 10^5 cells per well. After reaching sufficient confluency, cells were treated with different concentrations of inhibitors and DMSO as control. To prepare the protein lysates, plates were transferred on ice, washed with ice-cold PBS and harvested by scraping in specific ELISA buffers as indicated below.
(§2) Briefly, following the addition of complete MSD lysis buffer and scraping the cells from the surface of the dish, the cellular debris was removed from the lysate by centrifugation at 10000×g at 4° C. for 10 min. Protein concentration was determined using the BCA test according to the manufacturer's instructions (Pierce™ BCA Protein Assay Kit).

[5] = test system: ERK signaling, MEL-JUSO cells; experiment: ERK signaling (ppERK) in growing MEL-JUSO cells, MESOSCALE system, 24 hr; format: cell-based; details: applied separately, high doses (12 μM), following paradoxical activation
Experimental: as §1, §2

[6] = test system: ERK signaling, MEL-JUSO cells; experiment: ERK signaling (ppERK) in growing MEL-JUSO cells, LUMINEX xMAP, 24 hr; format: cell-based; details: extending into the micromolar range
Experimental: Following the addition of complete Luminex lysis buffer and scraping the cells from the surface of the dish, the cellular debris was removed from the lysate by centrifugation at 10000×g at 4° C. for 10 min. The pellet was discarded and the protein concentration of lysates was adjusted to 0.3 μg/μL using the BCA assay kit. xMAP assays were performed on a Luminex-3D platform (Luminex, Austin, TX) using commercially available phosphoprotein antibody-coupled beads (ProtATonce, Athens, Greece). […] Additionally, for loading control the levels of glyceraldehyde 3-phosphate dehydrogenase (GAPDH) protein were analyzed in a separate setting.

With `CC(C)(C)c1nc(-c2cccc(NS(=O)(=O)c3c(F)cccc3F)c2F)c(-c2ccnc(N)n2)s1` [dabrafenib] the “effect on ERK signaling of addition to trametinib” value [1] was “increases rather than decreases ERK signaling”.

For `CC(=O)Nc1cc(Oc2ccc3c(nc(Nc4ccc(F)cc4F)n3C)c2C)ccn1` [CHZ868], the “plateau level of suppression of cellular proliferation” value [2] was roughly 60%.

Compound `CCCS(=O)(=O)Nc1ccc(F)c(C(=O)c2c[nH]c3ncc(-c4ccc(Cl)cc4)cc23)c1F` [vemurafenib] has a GI50 (MEL-JUSO cells; MEL-JUSO cells, applied individually) of 32 µM.

For `COC(=O)N[C@@H](C)CNc1nccc(-c2cn(C(C)C)nc2-c2cc(Cl)cc(NS(C)(=O)=O)c2F)n1` [LGX818], the 1/koff (RAF) is listed as no less than 2 h.

In the case of `CS(=O)(=O)CCNCc1ccc(-c2ccc3ncnc(Nc4ccc(OCc5cccc(F)c5)c(Cl)c4)c3c2)o1` [Lapatinib], the “sensitivity of cells after stimulation with Heregulin (HRG)” value [3] is reported as “resistant to Lapatinib treatment”.

For `N#CC[C@H](C1CCCC1)n1cc(-c2ncnc3[nH]ccc23)cn1` [Ruxolitinib], the “plateau level of suppression of cellular proliferation” value [2] was roughly 60%.

For `CNC(=O)c1cc(Oc2ccc(NC(=O)Nc3ccc(Cl)c(C(F)(F)F)c3)cc2)ccn1` [sorafenib], the GI50 (MEL-JUSO cells; MEL-JUSO) is given as 8 µM, the “inhibition of RAF isoforms in in vitro kinase assays” value (all RAF isoforms) is given as “low nM range” and the IC50 [4] is given as 44 µM. The ppERK response [5] was “could only slightly inhibit ppERK” and the “ERK response to each inhibitor applied separately” value [6] was “marked paradoxical ERK activation”.
